Reference: patent publication US20220273659A1, “HETEROCYCLIC COMPOUNDS AS KINASE INHIBITORS” (NUVATION BIO INC., priority 2019, published 2022)
Read-outs that look alike come from different tables or passages of the source.

What was measured:
[1] = molecular target: T1, PI3Kδ kinase (Homo sapiens, UniProt O00329); assay: PI3Kδ kinase assay (ADP-Glo, Reaction Biology); assay type: biochemical
T1 construct: purchased Reaction Biology Corporation (assay service)
Outline: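 Kinase in Tris-HCl 40 mM pH 7.5, MgCl2 20 mM, orthovanadate 3 mM, DTT 2 mM, 0.05% CHAPS, 1% DMSO, preincubated 10 min at room temperature with compound (about 0.5 nM–100 μM). ATP started a 30-min reaction at 30 °C. ADP-Glo luminescence converted to μM ADP via standard curve; IC50 from nonlinear regression.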

[2] = system: MCF-7 breast adenocarcinoma cells; assay: Cancer cell proliferation assay, single agent (cell viability); assay type: cell-based; details: Homo sapiens, MCF7, Table 4; Rb positive; treatment 144 Hr with medium change at 72 Hr; Cell Titer-Glo or resazurin
Outline: (§1)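 Viability read by resazurin or CellTiter-Glo after 24 h treatment (BT-549) or 144 h with a 72 h medium change (MCF-7, DU4475). Compounds tested at 7–9 concentrations, e.g. 1.1 nM–10 μM, added the day after seeding; IC50 by nonlinear sigmoidal regression.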

[3] = system: Rb Ser780 phosphorylation in MCF-7 cells; assay: Determination of pRb levels (Ser780 phosphorylation, ELISA); assay type: cell-based; details: Homo sapiens, 24H treatment, percentage of vehicle control
Description: Hypo-phosphorylation of the retinoblastoma protein (Rb) by cyclin D:Cdk4/6 complexes results in active Rb, which is a clinically relevant biomarker associated with CDK4 or CDK6 inhibition. As a confirmatory measure of functional activity of CDK4/6, the Ser780 phosphorylation state of Rb was assessed. MCF-7 cells were plated at 2.5×10^5 to 3.0×10^6 cells/well in 6-well cell-culture plates and incubated at 37° C. for 24H in MEM medium supplemented with 10% FBS. Cells were treated for 24H with a medium containing test compound at various concentrations (e.g., 0.01, 0.1, […]) or with DMSO (≤1%) in duplicate. After incubation period, the media was removed, and cells were rinsed once with ice-cold PBS and lysed with 0.2 mL of Cell Lysis Buffer containing 1 mM PMSF and Protease Inhibitor. Protein concentration was estimated following Bradford method. The lysis and the Rb measurements were performed following the manufacturer's ELISA kit protocols and buffers (Cell Signaling Technology, Cat. No.: 13016C). Rb inhibition of test compounds was calculated as percentage of vehicle control. In some cases, a nonlinear regression model with a sigmoidal dose response and variable slope within GraphPad Prism was used to calculate the IC50 value of Rb inhibition for individual test compounds.

[4] = molecular target: T2, FMS kinase (Homo sapiens, UniProt P07333); assay: LanthaScreen Eu Kinase Binding Assay (ATP, fluorescent-PolyGT substrate); assay type: biochemical
T2 construct: purchased Invitrogen (Life Technologies)
Outline: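 TR-FRET read (ex 340, em 495 and 520 nm) after EDTA/Tb-labelled antibody stop; IC50 by four-parameter logistic fit of percent inhibition. Reaction: 1.25 nM FMS, 10 min compound preincubation (3-fold series), then 1 h at room temperature with 10 μM ATP and 200 nM fluorescent PolyGT.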

[5] = molecular target: T3, CDK4 (Homo sapiens, UniProt P11802); assay: In vitro kinase inhibition IC50, luminescence (ADP Glo), retinoblastoma substrate; assay type: biochemical; details: read-out: CDK4/D1 IC50
T3 construct: purchased Invitrogen PR8064A
Outline: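 Inhibition of CDK4 was quantified by ADP Glo luminescence with retinoblastoma as substrate. Reactions held 5 nM kinase, 1 μM retinoblastoma and 25 μM ATP and ran 2H at room temperature. A Synergy Neo reader took signals 15 min and 45 min after detection reagent, and percent inhibition was fitted to a four-parameter logistic model in XLfit to obtain IC50.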

[6] = molecular target: T4, CDK6 (Homo sapiens, UniProt Q00534); assay: as above; assay type: biochemical; details: read-out: CDK6/D1 IC50
T4 construct: purchased Invitrogen PR8422B
Outline: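 IC50 derived by four-parameter logistic fit of percent inhibition, read as ADP-Glo luminescence. Reactions: 5 nM CDK6, 1 μM retinoblastoma, 25 μM ATP, test compound 0.1–200 nM final, 2 h at room temperature.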

[7] = system: DU4475 breast carcinoma cells; assay: Cancer cell proliferation assay, single agent (cell viability); assay type: cell-based; details: Homo sapiens, DU-4475; Table 4; Rb negative; treatment 144 Hr with medium change at 72 Hr; Cell Titer-Glo or resazurin
Outline: as §1

[8] = molecular target: T5, CDK1 (cyclin B) (Homo sapiens, UniProt P06493); assay: Z'-LYTE kinase assay; assay type: biochemical
T5 construct: purchased Invitrogen Life Technologies (assay service)
Description: The plates were shaken for 30 seconds, and incubated for 60 minutes at room temperature. […] The plates were read on fluorescence plate reader with Dual emission at 445 nm and 520 nm.
The following equations were used for Z′-LYTE™ Screening Assay Data Analysis.

[9] = molecular target: T6, CDK2 (cyclin A) (Homo sapiens, UniProt P24941); assay: Z'-LYTE kinase assay; assay type: biochemical
T6 construct: purchased Invitrogen Life Technologies (assay service)
Outline: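 FRET-based Z′-LYTE read-out using 1.22–10.3 ng CDK2/cyclin A with Ser/Thr 12 peptide (2 μM in the 2× mix) and ATP (31 μM as the 4× solution), in HEPES pH 7.5, MgCl2, EGTA and BRIJ-35, for 60 min at room temperature. After 1 h of development, the 445/520 nm emission was read, and percent inhibition was fitted to a four-parameter logistic curve for IC50.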

T3 sequence (P11802 whole entry): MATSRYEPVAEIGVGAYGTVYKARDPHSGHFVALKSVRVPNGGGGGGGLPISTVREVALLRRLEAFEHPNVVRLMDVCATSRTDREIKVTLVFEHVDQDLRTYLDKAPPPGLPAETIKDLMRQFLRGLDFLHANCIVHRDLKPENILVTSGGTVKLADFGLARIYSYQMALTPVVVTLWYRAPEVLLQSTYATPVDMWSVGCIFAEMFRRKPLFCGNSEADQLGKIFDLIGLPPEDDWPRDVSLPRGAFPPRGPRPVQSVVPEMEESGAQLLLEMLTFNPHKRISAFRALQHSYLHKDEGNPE
T3 sequence (P24385 whole entry partner): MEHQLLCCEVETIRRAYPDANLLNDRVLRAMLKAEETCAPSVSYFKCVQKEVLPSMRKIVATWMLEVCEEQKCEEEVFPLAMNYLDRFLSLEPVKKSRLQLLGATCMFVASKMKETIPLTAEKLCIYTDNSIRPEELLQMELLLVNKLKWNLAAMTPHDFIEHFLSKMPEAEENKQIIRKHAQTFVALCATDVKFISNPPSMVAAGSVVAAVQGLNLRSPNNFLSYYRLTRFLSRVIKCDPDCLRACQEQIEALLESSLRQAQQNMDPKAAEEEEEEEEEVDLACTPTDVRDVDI
T2 sequence (P07333 20-972): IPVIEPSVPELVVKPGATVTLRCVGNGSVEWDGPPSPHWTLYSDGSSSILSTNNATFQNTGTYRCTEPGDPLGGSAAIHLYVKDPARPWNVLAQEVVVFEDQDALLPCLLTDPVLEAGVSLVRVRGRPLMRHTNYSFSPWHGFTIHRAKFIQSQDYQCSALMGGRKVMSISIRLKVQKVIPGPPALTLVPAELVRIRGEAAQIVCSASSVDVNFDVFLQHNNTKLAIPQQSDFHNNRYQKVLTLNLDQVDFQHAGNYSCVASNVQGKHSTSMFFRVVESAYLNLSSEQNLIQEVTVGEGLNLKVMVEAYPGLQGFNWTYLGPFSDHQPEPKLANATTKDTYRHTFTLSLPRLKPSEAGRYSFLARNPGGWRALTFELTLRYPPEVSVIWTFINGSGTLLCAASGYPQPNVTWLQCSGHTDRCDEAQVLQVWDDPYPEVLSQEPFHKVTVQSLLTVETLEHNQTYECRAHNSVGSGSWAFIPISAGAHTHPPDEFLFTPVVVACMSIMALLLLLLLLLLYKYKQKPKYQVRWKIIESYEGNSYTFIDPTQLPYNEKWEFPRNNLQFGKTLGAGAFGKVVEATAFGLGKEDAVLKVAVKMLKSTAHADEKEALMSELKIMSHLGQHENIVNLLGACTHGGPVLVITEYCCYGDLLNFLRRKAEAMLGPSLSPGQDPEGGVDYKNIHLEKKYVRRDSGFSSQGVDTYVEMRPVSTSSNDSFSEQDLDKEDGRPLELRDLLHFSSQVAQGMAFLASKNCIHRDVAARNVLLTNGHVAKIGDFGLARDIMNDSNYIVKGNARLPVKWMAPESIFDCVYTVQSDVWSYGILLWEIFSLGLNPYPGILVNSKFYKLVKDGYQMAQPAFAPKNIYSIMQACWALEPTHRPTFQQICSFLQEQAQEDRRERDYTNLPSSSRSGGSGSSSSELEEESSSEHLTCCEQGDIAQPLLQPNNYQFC
T1 sequence (O00329 whole entry): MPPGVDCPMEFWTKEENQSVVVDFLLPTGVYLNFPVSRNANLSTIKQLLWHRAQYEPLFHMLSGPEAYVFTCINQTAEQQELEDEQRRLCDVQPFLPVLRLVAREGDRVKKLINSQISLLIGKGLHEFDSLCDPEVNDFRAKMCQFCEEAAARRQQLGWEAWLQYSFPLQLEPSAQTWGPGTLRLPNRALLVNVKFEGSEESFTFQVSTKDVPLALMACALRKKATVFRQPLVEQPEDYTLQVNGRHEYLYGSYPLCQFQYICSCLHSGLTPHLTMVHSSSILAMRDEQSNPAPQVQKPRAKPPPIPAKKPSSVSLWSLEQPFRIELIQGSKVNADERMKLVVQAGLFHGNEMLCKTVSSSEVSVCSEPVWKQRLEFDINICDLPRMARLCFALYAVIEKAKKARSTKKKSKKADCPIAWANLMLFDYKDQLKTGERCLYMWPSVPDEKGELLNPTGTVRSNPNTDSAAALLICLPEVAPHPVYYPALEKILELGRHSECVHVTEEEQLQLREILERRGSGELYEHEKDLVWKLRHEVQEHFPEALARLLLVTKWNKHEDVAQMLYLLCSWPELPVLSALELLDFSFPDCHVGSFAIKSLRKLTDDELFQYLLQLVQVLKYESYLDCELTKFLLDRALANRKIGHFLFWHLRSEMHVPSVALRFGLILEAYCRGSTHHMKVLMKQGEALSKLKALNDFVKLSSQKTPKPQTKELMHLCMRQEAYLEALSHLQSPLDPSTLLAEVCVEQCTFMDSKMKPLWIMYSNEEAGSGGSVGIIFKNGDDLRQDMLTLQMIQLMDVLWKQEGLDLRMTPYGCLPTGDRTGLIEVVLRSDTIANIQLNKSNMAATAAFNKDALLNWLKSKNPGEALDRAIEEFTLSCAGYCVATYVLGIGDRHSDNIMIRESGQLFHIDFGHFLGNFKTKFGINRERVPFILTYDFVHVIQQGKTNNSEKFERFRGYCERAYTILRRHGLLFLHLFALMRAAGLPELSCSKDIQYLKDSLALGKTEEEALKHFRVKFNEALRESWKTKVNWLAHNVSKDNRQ
T1 sequence (P27986 whole entry partner): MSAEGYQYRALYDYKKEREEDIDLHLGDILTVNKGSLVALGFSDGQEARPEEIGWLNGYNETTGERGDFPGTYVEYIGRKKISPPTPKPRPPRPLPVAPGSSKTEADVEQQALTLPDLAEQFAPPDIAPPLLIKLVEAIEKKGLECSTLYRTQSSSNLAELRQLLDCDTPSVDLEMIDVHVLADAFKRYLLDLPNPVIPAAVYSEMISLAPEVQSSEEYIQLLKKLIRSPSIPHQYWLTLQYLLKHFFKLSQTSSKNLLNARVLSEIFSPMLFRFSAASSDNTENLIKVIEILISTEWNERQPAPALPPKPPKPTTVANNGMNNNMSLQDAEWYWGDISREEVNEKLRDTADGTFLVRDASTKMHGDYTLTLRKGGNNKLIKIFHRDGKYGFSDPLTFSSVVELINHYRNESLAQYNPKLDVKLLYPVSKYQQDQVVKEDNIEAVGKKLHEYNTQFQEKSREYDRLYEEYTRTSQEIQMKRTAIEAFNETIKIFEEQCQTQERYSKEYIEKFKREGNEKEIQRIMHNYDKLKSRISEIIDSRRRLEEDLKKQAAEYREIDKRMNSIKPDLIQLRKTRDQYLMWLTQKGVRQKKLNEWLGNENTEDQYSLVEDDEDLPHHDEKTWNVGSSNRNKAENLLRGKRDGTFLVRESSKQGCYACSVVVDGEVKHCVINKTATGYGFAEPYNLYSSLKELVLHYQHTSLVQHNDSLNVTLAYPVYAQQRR
T5 sequence (P06493 whole entry): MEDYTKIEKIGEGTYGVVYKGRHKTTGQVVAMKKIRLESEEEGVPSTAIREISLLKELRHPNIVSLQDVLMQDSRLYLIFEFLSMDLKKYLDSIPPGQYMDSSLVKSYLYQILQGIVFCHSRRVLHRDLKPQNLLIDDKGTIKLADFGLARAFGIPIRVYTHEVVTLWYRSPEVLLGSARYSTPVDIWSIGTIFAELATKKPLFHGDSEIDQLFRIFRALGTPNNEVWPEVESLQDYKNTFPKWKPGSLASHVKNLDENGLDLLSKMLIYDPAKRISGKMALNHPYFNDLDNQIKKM
T5 sequence (P14635 whole entry partner): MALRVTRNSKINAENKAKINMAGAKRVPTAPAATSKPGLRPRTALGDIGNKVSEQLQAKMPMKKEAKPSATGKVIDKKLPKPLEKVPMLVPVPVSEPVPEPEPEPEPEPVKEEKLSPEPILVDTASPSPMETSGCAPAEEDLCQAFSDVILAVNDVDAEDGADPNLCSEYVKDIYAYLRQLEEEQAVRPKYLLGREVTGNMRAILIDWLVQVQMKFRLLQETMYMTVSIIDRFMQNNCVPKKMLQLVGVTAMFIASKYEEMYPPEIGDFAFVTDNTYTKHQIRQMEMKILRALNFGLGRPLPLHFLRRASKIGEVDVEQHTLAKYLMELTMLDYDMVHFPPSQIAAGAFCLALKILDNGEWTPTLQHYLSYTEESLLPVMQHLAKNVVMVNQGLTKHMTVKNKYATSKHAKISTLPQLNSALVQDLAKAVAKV
T4 sequence (Q00534 whole entry): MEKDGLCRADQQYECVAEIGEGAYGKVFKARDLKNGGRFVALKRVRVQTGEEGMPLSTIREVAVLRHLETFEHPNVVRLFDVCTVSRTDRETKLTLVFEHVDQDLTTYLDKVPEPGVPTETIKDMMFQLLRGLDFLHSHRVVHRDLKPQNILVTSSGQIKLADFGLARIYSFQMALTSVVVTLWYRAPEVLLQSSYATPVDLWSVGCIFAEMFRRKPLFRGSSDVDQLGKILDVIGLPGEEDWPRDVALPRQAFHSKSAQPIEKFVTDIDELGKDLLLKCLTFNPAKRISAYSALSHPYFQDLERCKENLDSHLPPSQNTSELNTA
T4 sequence (P24385 whole entry partner): as the sequence (P24385 whole entry partner) above

Row | IC50 [1] [µM] | IC50 [2] [µM] | IC50 [4] [µM] | IC50 [5] [µM] | IC50 [6] [µM] | IC50 [7] [µM] | IC50 ([8]; read-out: CDK1/B IC50) [µM] | IC50 [9] [µM] | IC50 [8] [µM] | Structure (SMILES) | inhibition at 0.01 µM ([3]; MCF7, 0.01 μM) [%] | inhibition at 0.1 µM ([3]; MCF7, 0.1 μM) [%] | inhibition at 1 µM ([3]; MCF7, 1 μM) [%]
1 | 0.906 | 2.27 | 0.007 | 0.002 | 0.0015 |  |  |  |  | N#Cc1cc2cnc(Nc3ccc(N4CCNCC4)cc3)nc2n(C2CCCc3ccccc32)c1=O (stereo not shown) [Compound No. 39, 7-oxo-2-((4-(piperazin-1-yl)phenyl)amino)-8-(1,2,3,4-tetrahydronaphthalen-1-yl)-7,8-dihydropyrido[2,3-d]pyrimidine-6-carbonitrile] | -25 | 40 | 52
2 | 0.77 | 1.28 | 0.0065 | > 0.2 | > 0.2 | 5.71 | > 5 | > 3.12 |  | CCOCCCn1c(=O)c(C#N)cc2cnc(Nc3ccc4c(c3)CCNC4)nc21 [Compound No. 343, 8-(3-ethoxypropyl)-7-oxo-2-((1,2,3,4-tetrahydroisoquinolin-6-yl)amino)-7,8-dihydropyrido[2,3-d]pyrimidine-6-carbonitrile] |  |  | 
3 | 1.63 | 0.435 | 0.0035 | 0.0775 | 0.064 | 0.96 | > 4.67 | 0.201 |  | N#Cc1cc2cnc(Nc3ccc4c(c3)CCNC4)nc2n(C2CCC(F)(F)C2)c1=O (stereo not shown) [Compound No. 344, 8-(3,3-difluorocyclopentyl)-7-oxo-2-((1,2,3,4-tetrahydroisoquinolin-6-yl)amino)-7,8-dihydropyrido[2,3-d]pyrimidine-6-carbonitrile] |  |  | 
4 | 10.2 | > 30 | 0.018 | > 0.2 | 0.057 | 10.1 | > 5 | 0.177 |  | N#Cc1cc2cnc(Nc3ccc4c(c3)CCNC4)nc2n(C2CCCC2O)c1=O (stereo not shown) [Compound No. 346, 8-(2-hydroxycyclopentyl)-7-oxo-2-((1,2,3,4-tetrahydroisoquinolin-6-yl)amino)-7,8-dihydropyrido[2,3-d]pyrimidine-6-carbonitrile] |  |  | 
5 | 19.9 | 0.175 | 0.055 | 0.002 | 0.0045 | 1.15 |  | 0.0055 | 0.055 | N#Cc1cc2cnc(NC3CCN(S(=O)(=O)C4CC4)CC3)nc2n(C2CCCC2)c1=O [Compound No. 356, 8-cyclopentyl-2-((1-(cyclopropylsulfonyl)piperidin-4-yl)amino)-7-oxo-7,8-dihydropyrido[2,3-d]pyrimidine-6-carbonitrile] |  |  | 
6 | > 25.3 | 0.19 | 0.49 | 0.0027 | 0.0058 | 1.3 |  | 0.011 | 0.23 | CCS(=O)(=O)N1CCC(Nc2ncc3cc(C#N)c(=O)n(C4CCCC4)c3n2)CC1 [Compound No. 357, 8-cyclopentyl-2-((1-(ethylsulfonyl)piperidin-4-yl)amino)-7-oxo-7,8-dihydropyrido[2,3-d]pyrimidine-6-carbonitrile] |  |  | 
7 | > 44 | 2.8 | 1.13 | 0.0044 | 0.0066 | 12.8 |  | 0.119 | 1.38 | N#Cc1cc2cnc(NC3CCN(S(=O)(=O)CC(F)(F)F)CC3)nc2n(C2CCCC2)c1=O [Compound No. 358, 8-cyclopentyl-7-oxo-2-((1-((2,2,2-trifluoroethyl)sulfonyl)piperidin-4-yl)amino)-7,8-dihydropyrido[2,3-d]pyrimidine-6-carbonitrile] |  |  | 
8 | 0.825 | 3.33 | 0.064 | > 0.2 | > 0.2 | 5.67 | > 5 | > 5 |  | CS(=O)(=O)N1CCC[C@H](Nc2ncc3cc(C#N)c(=O)n(C4CCCC4)c3n2)C1 [Compound No. 364, (S)-8-cyclopentyl-2-((1-(methylsulfonyl)piperidin-3-yl)amino)-7-oxo-7,8-dihydropyrido[2,3-d]pyrimidine-6-carbonitrile] |  |  | 
9 | 1.71 | 1.26 | 0.311 | 0.167 | > 0.2 | 5.63 | > 5 | 1.24 |  | CS(=O)(=O)N1CCC[C@@H](Nc2ncc3cc(C#N)c(=O)n(C4CCCC4)c3n2)C1 [Compound No. 365, (R)-8-cyclopentyl-2-((1-(methylsulfonyl)piperidin-3-yl)amino)-7-oxo-7,8-dihydropyrido[2,3-d]pyrimidine-6-carbonitrile] |  |  | 
10 | > 48.2 | 0.32 | 0.925 | 0.022 | 0.0045 | 2.41 |  | 0.151 | 2.93 | CN(C)S(=O)(=O)N1CCC(Nc2ncc3cc(C#N)c(=O)n(C4CCCC4)c3n2)CC1 [Compound No. 366, 4-((6-cyano-8-cyclopentyl-7-oxo-7,8-dihydropyrido[2,3-d]pyrimidin-2-yl)amino)-N,N-dimethylpiperidine-1-sulfonamide] |  |  | 
11 | 0.539 | 0.64 | 0.102 | 0.055 | 0.0074 | 5.16 |  | 0.308 | 2.92 | CS(=O)(=O)N1CCC(Nc2ncc3cc(C#N)c(=O)n(C4CCCCC4)c3n2)CC1 [Compound No. 367, 8-cyclohexyl-2-((1-(methylsulfonyl)piperidin-4-yl)amino)-7-oxo-7,8-dihydropyrido [2,3-d] pyrimidine-6-carbonitrile] |  |  | 
